“Also recorded” adds a separate entry of the source.
Legend:
LTA4H [1] = biological target: T1, LTA4H (Homo sapiens, UniProt P09960); test: Isothermal titration calorimetry with LTA4H; format: binding; set-up: made in house; host or cells: Escherichia coli JM101; conditions: 25 mM Tris pH 7.8, 3% DMSO, 25 °C
T1 sequence (P09960 1-611): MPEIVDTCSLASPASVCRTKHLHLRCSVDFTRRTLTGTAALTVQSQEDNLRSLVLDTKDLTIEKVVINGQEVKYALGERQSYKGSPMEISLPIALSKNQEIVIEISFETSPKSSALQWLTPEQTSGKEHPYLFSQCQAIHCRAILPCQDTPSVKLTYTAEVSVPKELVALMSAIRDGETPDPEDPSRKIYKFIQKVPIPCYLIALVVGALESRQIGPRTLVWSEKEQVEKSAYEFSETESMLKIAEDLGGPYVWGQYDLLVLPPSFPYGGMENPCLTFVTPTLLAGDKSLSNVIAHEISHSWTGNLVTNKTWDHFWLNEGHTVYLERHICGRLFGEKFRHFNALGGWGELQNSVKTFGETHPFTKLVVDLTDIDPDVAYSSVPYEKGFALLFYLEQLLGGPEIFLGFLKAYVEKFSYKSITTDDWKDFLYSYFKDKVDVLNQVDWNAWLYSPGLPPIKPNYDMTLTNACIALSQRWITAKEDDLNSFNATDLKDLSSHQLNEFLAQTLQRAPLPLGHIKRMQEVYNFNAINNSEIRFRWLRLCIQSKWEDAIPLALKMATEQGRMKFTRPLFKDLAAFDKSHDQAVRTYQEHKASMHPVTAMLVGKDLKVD
Procedure: ITC was performed with an iTC200 calorimeter (MicroCal Inc., Northampton, MA, USA) equipped with a […] sample cell. Measurements were performed in 25 mM Tris-HCl pH 7.8 supplemented with 3% DMSO at 25 °C. […] After the ITC system was equilibrated, the initial injection of an inhibitor was performed in 0.5–1.0 µL followed by 15 injections in 2.5 µL. The time between each injection was 1.5–3.0 min to ensure the complete equilibration of the system. Collected data were analyzed by MicroCal PEAK-ITC Analysis Software. Control experiments were performed with identical conditions using only inhibitor, protein or buffer with 3% DMSO.

[2] = biological target: T2, recombinant soluble epoxide hydrolase (sEH) (Homo sapiens, UniProt P34913); test: Inhibition assay with soluble epoxide hydrolase (PHOME); format: biochemical; conditions: for effect on the activity of recombinant soluble epoxide hydrolase (sEH): 50 μM PHOME
T2 construct: made in house
T2 sequence (P34913 1-555): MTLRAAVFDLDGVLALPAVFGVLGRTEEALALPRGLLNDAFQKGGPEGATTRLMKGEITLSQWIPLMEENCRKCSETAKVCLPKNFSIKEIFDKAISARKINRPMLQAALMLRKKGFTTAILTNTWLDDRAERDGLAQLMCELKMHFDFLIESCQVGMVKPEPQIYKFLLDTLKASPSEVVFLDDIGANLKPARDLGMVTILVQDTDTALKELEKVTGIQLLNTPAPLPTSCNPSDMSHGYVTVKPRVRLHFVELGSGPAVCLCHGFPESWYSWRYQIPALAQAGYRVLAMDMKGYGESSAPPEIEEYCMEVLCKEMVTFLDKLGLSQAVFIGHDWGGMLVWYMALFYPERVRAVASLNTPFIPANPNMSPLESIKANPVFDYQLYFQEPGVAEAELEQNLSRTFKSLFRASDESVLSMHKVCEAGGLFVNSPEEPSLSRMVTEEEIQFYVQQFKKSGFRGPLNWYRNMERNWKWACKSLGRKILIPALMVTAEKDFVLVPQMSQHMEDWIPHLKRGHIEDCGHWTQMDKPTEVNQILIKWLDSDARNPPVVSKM
Procedure: The human recombinant soluble epoxide hydrolase (sEH) was expressed and purified as described before.
Pre-incubation with 0.5 µg/mL of sEH and test compounds or 0.1% (v/v) vehicle was performed in 25 mM Tris-HCl buffer (pH 7.0) containing 0.1 mg/mL bovine serum albumin at room temperature for 10 min. Reaction was initiated with 50 μM PHOME, a non-fluorescent compound that is enzymatically converted into fluorescent 6-methoxy-naphtaldehyde, at room temperature for 60 min. Reactions were stopped with 200 mM ZnSO4 and fluorescence signals were recorded at 330 nm/465 nm (ex/em). If required, a possible fluorescence of test compounds was subtracted from the read-out.

LTA4H [3] = biological target: T1, LTA4H; test: Thermal shift assay with differential scanning fluorimetry; format: binding; set-up: made in house; host or cells: Escherichia coli JM101; conditions: for Tm of LTA4H upon the addition of inhibitor: 0 to 200 µM inhibitor, increased from 57.5 °C without inhibitor
Procedure: DSF, also known as the thermal shift assay, was carried out in 25 mM Tris-HCl pH 7.8 containing 50 ng/µL LTA4H, 2X SYPRO Orange (Life Technologies, Carlsbad, CA, USA), 3% DMSO or 0–300 µM of an inhibitor. The assay was performed in a white 96-well Multiplate PCR Plate (Bio-Rad, Hercules, CA, USA) covered with the iCycler iQ Optical tape (Bio-Rad, Hercules, CA, USA). The total volume per well was 25 μL, consisting of 1 μL SYPRO Orange solution. Relative fluorescence intensities (RFU) were recorded with a C1000 Touch Thermal Cycler (Bio-Rad, Hercules, CA, USA) and a CFX-96 Real-Time System. […] The melting temperature (Tm) for each condition were obtained from the first derivative of melting curves and the affinity (Kd) and stability (Kb) values were calculated based on the Tm and concentration–response curves.

[4] = mean ± SEM, n = 4, read-out: dissociation constant (Kd) by ITC
[5] = read-out: dissociation constant (Kd) by ITC
[6] = from Tm concentration–response curves, read-out: Kd by differential scanning fluorimetry

Row | Kd (LTA4H [1]; [4]) [nM] | Kd (LTA4H [1]; [5]) [nM] | Tm of LTA4H upon the addition of inhibitor (LTA4H [3]) [°C] | Kd (LTA4H [3]; [6]) [nM] | effect on the activity of soluble epoxide hydrolase (sEH) at 10 µM ([2]; 10 µM inhibitor) | SMILES | effect on the activity of recombinant soluble epoxide hydrolase (sEH) [2] | Kd (LTA4H [1]; dissociation constant (Kd) by ITC) [nM] | Kd (LTA4H [1]; dissociation constant (Kd) by ITC, mean ± SEM, n = 4) [nM] | Kd (LTA4H [3]) [nM]
1 | 248 ± 53.2 | 250 | 61.2 | 240 ± 10 | – | Nc1nc(-c2ccc(Cc3ccccc3)cc2)cs1 [ARM1, 4-(4-benzylphenyl) thiazol-2-amine, reference compound] | did not have any effect; also recorded: do not affect | – | – | –
2 | 326 ± 29.4 | 330 | 60.7 | 510 ± 40 | attenuated | Nc1nc(-c2ccc(Cc3ccccc3)cc2)co1 [TTO, 4-(4-benzylphenyl) oxazol-2-amine] | at higher concentrations may affect | – | – | –

Row | SMILES | Kd (LTA4H [1]; [4]) [nM] | Kd (LTA4H [1]; [5]) [nM] | Tm of LTA4H upon the addition of inhibitor (LTA4H [3]) [°C] | Kd (LTA4H [3]; [6]) [nM] | effect on the activity of soluble epoxide hydrolase (sEH) at 10 µM ([2]; 10 µM inhibitor) | effect on the activity of recombinant soluble epoxide hydrolase (sEH) [2] | Kd (LTA4H [1]; dissociation constant (Kd) by ITC) [nM] | Kd (LTA4H [1]; dissociation constant (Kd) by ITC, mean ± SEM, n = 4) [nM] | Kd (LTA4H [3]) [nM]
3 | Nc1nc(-c2ccc(Cc3ccccc3)cc2)c[se]1 [TTSe, 4-(4-benzylphenyl) selenazol-2-amine] | – | – | 61.9 | – | – | did not have any effect; also recorded: do not affect | 370 | 367 ± 10.7 | 300 ± 20
